Measured values: patent US20250009742A1 (priority 2021, published 2025)

What was measured:
intracellular HBV DNA = experiment: Real-time PCR for intracellular HBV DNA in HepAD38 cells; type: cell-based; conditions: Hepatitis B virus, HePAD38, 65 h, 65 hours treatment
Protein = Protein (Hepatitis B virus genotype D subtype ayw, UniProt P03146); experiment: Protein inhibition rate / EC50 (Table 1, no method described); type: biochemical
[1] = Cell viability assay (EZ-Cytox), cytotoxicity; type: cell-based; conditions: human, HepAD38 cells; for viability at 65 h, 100 µM: read-out: Cytotoxicity % Livability (@100 μM)
Experimental: HepAD38 cells were cultured for 2 days in Dulbecco's Modified Eagle's medium (Welgene, LM001-05) supplemented with 10% FBS without tetracycline. […] After 65 hours of treatment, viability was measured using EZ-Cytox cell viability assay kit (Daeil Lab Service) according to the manufacturer's instructions. The absorbance was measured at 450 nm using a spectrophotometer (Spark, Tecan).

Protein, sequence (P03146 whole entry): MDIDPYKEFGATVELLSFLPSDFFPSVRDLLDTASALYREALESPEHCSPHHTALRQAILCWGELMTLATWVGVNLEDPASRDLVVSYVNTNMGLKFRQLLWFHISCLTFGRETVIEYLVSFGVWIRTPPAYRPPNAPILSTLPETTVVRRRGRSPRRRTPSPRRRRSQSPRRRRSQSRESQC

Row | SMILES | IC50 (intracellular HBV DNA) [µM] | EC50 (Protein) [µM] | inhibition at 30 µM (Protein) [%] | CC50 at 65 h [1] [µM] | viability at 65 h, 100 µM [1] [%]
1 | COc1ccc(N(Cc2n[nH]c3c2CC(O)CC3)C(=O)Nc2ccc(F)c(Cl)c2)cn1 (centres unmarked) [Example 48, 3-(3-chloro-4-fluorophenyl)-1-((5-hydroxy-4,5,6,7-tetrahydro-1H-indazol-3-yl)methyl)-1-(6-methoxypyridin-3-yl)urea] | 1.1 | 6.4 | 90 | > 100 | –
2 | COc1ccc(N(Cc2n[nH]c3c2CS(=O)(=O)CC3)C(=O)Nc2ccc(F)c(Cl)c2)cn1 [Example 49, 3-(3-chloro-4-fluorophenyl)-1-((5,5-dioxido-1,4,6,7-tetrahydrothiopyrano[4,3-c]pyrazol-3-yl)methyl)-1-(6-methoxypyridin-3-yl)urea] | > 1.1 | – | 72 | > 100 | –
3 | COc1ccc(N(Cc2cc(C)[nH]n2)C(=O)Nc2ccc(F)c(Cl)c2)cn1 [Example 50, 3-(3-chloro-4-fluorophenyl)-1-(6-methoxypyridin-3-yl)-1-((5-methyl-1H-pyrazol-3-yl)methyl)urea] | 0.26 | 3.8 | 94.3 | > 100 | –
4 | COc1ccc(N(Cc2n[nH]c3c2C2CCC3C2)C(=O)Nc2ccc(F)c(Cl)c2)cn1 (centres unmarked) [Example 51, 3-(3-chloro-4-fluorophenyl)-1-(6-methoxypyridin-3-yl)-1-((4,5,6,7-tetrahydro-1H-4,7-methanoindazol-3-yl)methyl)urea] | 0.035 | 3.4 | 87.1 | > 50 | 36.7
5 | COc1ccc(N(Cc2n[nH]c3c2CC(C(=O)O)CC3)C(=O)Nc2ccc(F)c(Cl)c2)cn1 (centres unmarked) [Example 52, 3-((3-(3-chloro-4-fluorophenyl)-1-(6-methoxypyridin-3-yl)ureido)methyl)-4,5,6,7-tetrahydro-1H-indazole-5-carboxylic acid] | > 1.1 | – | 4 | > 100 | 100
6 | COC(=O)C1CCc2[nH]nc(CN(C(=O)Nc3ccc(F)c(Cl)c3)c3ccc(OC)nc3)c2C1 (centres unmarked) [Example 53, methyl 3-((3-(3-chloro-4-fluorophenyl)-1-(6-methoxypyridin-3-yl)ureido)methyl)-4,5,6,7-tetrahydro-1H-indazole-5-carboxylate] | > 1.1 | – | 20.1 | > 100 | 58.9
7 | COc1cc(N(Cc2n[nH]c3c2CCCC3)C(=O)Nc2ccc(F)c(Cl)c2)ccn1 [Example 54, 3-(3-chloro-4-fluorophenyl)-1-(2-methoxypyridin-4-yl)-1-((4,5,6,7-tetrahydro-1H-indazol-3-yl)methyl)urea] | 0.013 | 3.5 | 84 | 40.6 | 17.4
8 | COc1ccc(N(Cc2n[nH]cc2C)C(=O)Nc2ccc(F)c(Cl)c2)cn1 [Example 56, 3-(3-chloro-4-fluorophenyl)-1-(6-methoxypyridin-3-yl)-1-((4-methyl-1H-pyrazol-3-yl)methyl)urea] | 0.4 | 6.6 | 86.4 | > 100 | 98.2
9 | COc1ccc(N(Cc2n[nH]c(C)c2C)C(=O)Nc2ccc(F)c(Cl)c2)cn1 [Example 57, 3-(3-chloro-4-fluorophenyl)-1-((4,5-dimethyl-1H-pyrazol-3-yl)methyl)-1-(6-methoxypyridin-3-yl)urea] | 0.023 | 2 | 96.2 | > 100 | 93.2
10 | COc1ccc(N(Cc2cc(C(C)C)[nH]n2)C(=O)Nc2ccc(F)c(Cl)c2)cn1 [Example 58, 3-(3-chloro-4-fluorophenyl)-1-((5-isopropyl-1H-pyrazol-3-yl)methyl)-1-(6-methoxypyridin-3-yl)urea] | 0.16 | 5 | 93.1 | > 100 | 92.7
